Experimental findings from patent US6531476B1, “Piperazine derivatives inhibiting human immunodeficiency virus replication” (Universite Paris 7 - Denis Diderot, priority 1998, dated 2003) are described below.

Where two headings read alike, the source gives them in different places.

For data set [1], the system named is HIV-1/Ba-L. Kind of data set: Inhibition of HIV replication in monocyte-derived macrophages (reverse transcriptase activity in culture supernatants). The data set is classed as cell-based. The note with it: dose-effect curve FIG. 1. From the text:
a) Production and Culturing of the Macrophages
The macrophages were obtained by differentiation of monocytes which were themselves isolated from peripheral blood mononuclear cells.
To do this, the peripheral blood mononuclear cells were separated from the other elements of the blood by centrifugation on a ficoll gradient (MSL 2000, from Eurobio) and washed twice in RPMI 1640 medium (from Boehringer Mannheim). The monocytes were isolated from these mononuclear cells by counter-current elutriation. The fractions collected were analyzed using a cell counter-analyzer (from Coulter) and the cells corresponding to each fraction were phenotyped and then analyzed using a flow cytometer (FACS, from Becton Dickinson). The purity of the monocytes thus collected is at least equal to 95%.
These monocytes were then suspended in a culture medium (medium A below) comprising RPMI 1640 medium (from Boehringer Mannheim) supplemented with 10% fetal calf serum (from Boehringer Mannheim) decomplemented beforehand by treatment at 56° C. for 30 minutes, L-glutamine (2 mM) and a solution containing 100 μg/ml of 3 antibiotics: penicillin, streptomycin and neomycin (PSN, from Life Technologies), at a rate of 1 million monocytes per ml of culture medium. […]

Data set [2] has as its system HIV-1/Ba-L. The data set can be described thus: Various procedures for treating monocyte-derived macrophages (before/after infection, maintained or not). The data set is classed as cell-based. The note with it: Human immunodeficiency virus 1, BAL, Macrophage, triplicate, read-out: percentage of inhibition (I) of the viral replication. On the procedure:
Various procedures for treating monocyte-derived macrophages with the piperazine derivatives in accordance with the invention were tested using a protocol similar to that described in Example 14.
In these tests, however, the macrophage cultures were divided into three groups:
a first group (group 1 below) in which the macrophages were treated with the piperazine derivatives 24 hours before being infected with HIV (i.e. on D3) and the treatment was maintained up to D28, as described in Example 14,
a second group (group 2 below) in which the macrophages were treated 24 hours after having been infected with HIV (i.e. on D5) and the treatment was maintained up to D28, and
a third group (group 3 below) in which the macrophages were treated 24 hours before being infected with HIV (i.e. on D3), but the treatment was not subsequently maintained.
In all cases, the piperazine derivatives were used at a dose of 100 μM and the tests were carried out in triplicate.

Data set [3] concerns monocyte-derived macrophages. The data set can be described thus: Cytotoxicity: neutral red viability test on monocyte-derived macrophage cultures. The conditions noted are these: 100 μM, FIG. 3. The data set is classed as cell-based. The method, then: The cytotoxicity of the piperazine derivatives in accordance with the invention was evaluated by measuring, by means of three different tests:
a test with neutral red, the viability of peripheral blood mononuclear cell cultures and of monocyte-derived macrophage cultures treated with the piperazine derivatives in accordance with the invention and by comparing the results obtained with those observed for “control” cultures, i.e. peripheral blood mononuclear cell cultures or monocyte-derived macrophage cultures prepared under the same conditions but in the absence of any treatment with said piperazine derivatives.
The neutral red test is also a test which is used on adherent cells and which was used to measure the effects of the piperazine derivatives in accordance with the invention on the monocyte-derived macrophages. […]
In all cases, the viability of the peripheral blood mononuclear cells and of the monocyte-derived macrophages was measured before culturing them, and then at each renewal of the culture media.

As a reminder, the melting point is the temperature, or range, at which the solid turns liquid. Molecule `CCN(CC)C(=O)OCC1CN(C(=S)c2cc(OC)c(OC)c(OC)c2)CCN1C(=O)c1cc(OC)c(OC)c(OC)c1` (stereo not shown) returned a melting point of 105.8 °C.
Usually inhibition stands for the relative decrease from the control value, in per cent. For `CCN(CC)C(=O)OCC1CN(C(=O)c2cc(OC)c(OC)c(OC)c2)CCN1C(=O)c1cc(OC)c(OC)c(OC)c1` (stereo not shown) [Example 2, 1,4-bis(3′,4′,5′-trimethoxybenzoyl)-2-(N,N-diethylaminocarbonyloxymethyl)piperazine], in the data set with HIV-1/Ba-L [1], the “doses at which inhibitory activity on HIV replication is shown” value is reported as “above 1 μM”. Besides, the inhibition at 100 µM with HIV-1/Ba-L [2] (24 h, Group 2: treated 24 hours after infection (D5), maintained up to D28, average ± standard deviation) stood at 88 ± 12%; in the data set on HIV-1/Ba-L [2] (Group 1: treated 24 hours before infection (D3), maintained up to D28, average ± standard deviation) it was 91 ± 2%; in the data set on HIV-1/Ba-L [2] (Group 3: treated 24 hours before infection (D3), treatment not maintained, average ± standard deviation) it was 73 ± 2%. The “viability of monocyte-derived macrophage cultures versus control cultures (number of live cells)” value in data set [3] is listed as “no significant difference”.
`CCN(CC)C(=O)OCC1CN(C(=O)c2cc(OC)c(OC)c(OC)c2)CCN1Cc1ccccc1.Cl` (stereo not shown) [Example 8, 1-benzyl-4-(3′,4′,5′-trimethoxybenzoyl)-2-(N,N-diethylaminocarbonyloxymethyl)piperazine hydrochloride] returned a melting point of 134 °C.
